The numbers were not newly measured in patent US20190022132A1, “TREATMENT OR PREVENTION OF PULMONARY CONDITIONS WITH CARBON MONOXIDE” (PROTERRIS, INC., priority 2013, published 2019), which cites them from elsewhere.

For series [1] the following is noted: CO alveolar concentration of 25 ppm.
The conditions of series [2]: Phase I and Phase II human trials.
The subject of series [3] is brain. The settings on record: inhalation, rats.
Series [4] has as its system models of acute lung injury. The note with it: early timepoints; effect not sustained beyond the first 6 hours.

`[C-]#[O+]` [CO, carbon monoxide]: the “time to reach an equilibration point” value in series [1] is “about 20 hours”. Also, in series [2], the tolerability entry was “well tolerated”. Moreover, in series [3], the “oxidative damage in the brain” value was “can cause oxidative damage in the brain”. The “airway neutrophil count and lung injury” value in series [4] is “decrease airway neutrophil count and lung injury at early timepoints”.
